Experimental data from ChEMBL document CHEMBL5247593, “Novel heterocyclic hydroxamates as inhibitors of the mycobacterial zinc metalloprotease Zmp1 to probe its mechanism of function” (Eur J Med Chem, 2022).

Test system: Mycobacterium tuberculosis variant bovis
Test: Antimycobacterial activity against Mycobacterium bovis ATCC 35734 assessed as inhibition of bacterial growth at 128 uM measured after 7 days by luminescence based analysis relative to control
Assay type: functional
Settings: ATCC 35734, 168 h, time 7 day

Structure (SMILES): CO[C@H]1/C=C/O[C@@]2(C)Oc3c(C)c(O)c4c(O)c(c(/C=N/N5CCN(C)CC5)c(O)c4c3C2=O)NC(=O)/C(C)=C\C=C\[C@H](C)[C@H](O)[C@@H](C)[C@@H](O)[C@@H](C)[C@H](OC(C)=O)[C@@H]1C [RIFAMPIN]
- inhibition at 128 µM: 100%

Structure (SMILES): COC(=O)[C@H](CC(C)C)NC(=O)c1ccc(/C=C2\SC(=O)N(CC(=O)NOCc3ccccc3)C2=O)cc1
- inhibition at 128 µM: 14.6%

Structure (SMILES): CC(C)[C@H](NC(=O)CNC(=O)c1ccn(CC(=O)NOCc2ccccc2)c1)C(=O)O
- inhibition at 128 µM: 8.2%

Structure (SMILES): COC(=O)[C@@H](NC(=O)c1ccc(/C=C2\SC(=O)N(CC(=O)NOCc3ccccc3)C2=O)cc1)C(C)C
- inhibition at 128 µM: 11.2%

Structure (SMILES): C=CCONC(=O)Cn1cc(C(=O)NCC(=O)N[C@H](C(=O)O)C(C)C)c2ccccc21
- inhibition at 128 µM: 15.8%

Structure (SMILES): CC(C)[C@H](NC(=O)[C@H](C)NC(=O)c1cn(CC(=O)NOCc2ccccc2)c2ccccc12)C(=O)O
- inhibition at 128 µM: 34.2%

Structure (SMILES): C=CCONC(=O)CN1C(=O)S/C(=C\c2ccc(C(=O)N[C@@H](CC(C)C)C(=O)OC)cc2)C1=O
- inhibition at 128 µM: 11.3%

Structure (SMILES): C=CCONC(=O)CN1C(=O)S/C(=C\c2cccc(C(=O)N[C@H](C(=O)OC)C(C)C)c2)C1=O
- inhibition at 128 µM: 9.8%

Structure (SMILES): COC(=O)[C@@H](NC(=O)c1cccc(/C=C2\SC(=O)N(CC(=O)NOCc3ccccc3)C2=O)c1)C(C)C
- inhibition at 128 µM: 7.2%

Structure (SMILES): C=CCONC(=O)Cn1cc(C(=O)N[C@@H](C)C(=O)N[C@@H](CC(C)C)C(=O)O)c2ccccc21
- inhibition at 128 µM: 7.7%

Structure (SMILES): C=CCONC(=O)Cn1ccc(C(=O)NCC(=O)N[C@@H](CC(C)C)C(=O)O)c1
- inhibition at 128 µM: 5.2%

Structure (SMILES): CC(C)C[C@H](NC(=O)[C@H](C)NC(=O)c1cn(CC(=O)NOCc2ccccc2)c2ccccc12)C(=O)O
- inhibition at 128 µM: 7.2%

Structure (SMILES): C=CCONC(=O)CN1C(=O)S/C(=C\c2cccc(C(=O)N[C@@H](CC(C)C)C(=O)OC)c2)C1=O
- inhibition at 128 µM: 9.7%

Structure (SMILES): CC(C)C[C@H](NC(=O)CNC(=O)c1ccn(CC(=O)NOCc2ccccc2)c1)C(=O)O
- inhibition at 128 µM: 9.7%

Structure (SMILES): C=CCONC(=O)Cn1cc(C(=O)NCC(=O)N[C@@H](CC(C)C)C(=O)O)c2ccccc21
- inhibition at 128 µM: 18.3%

Structure (SMILES): COc1nc2ccc(Br)cc2cc1[C@@H](c1ccccc1)[C@@](O)(CCN(C)C)c1cccc2ccccc12 [BEDAQUILINE]
- inhibition at 128 µM: 100%

Structure (SMILES): C=CCONC(=O)CN1C(=O)S/C(=C\c2ccc(C(=O)N[C@H](C(=O)OC)C(C)C)cc2)C1=O
- inhibition at 128 µM: 10.5%

Structure (SMILES): COC(=O)[C@H](CC(C)C)NC(=O)c1cccc(/C=C2\SC(=O)N(CC(=O)NOCc3ccccc3)C2=O)c1
- inhibition at 128 µM: 17.2%

Structure (SMILES): CC(C)[C@H](NC(=O)CNC(=O)c1cn(CC(=O)NOCc2ccccc2)c2ccccc12)C(=O)O
- inhibition at 128 µM: 10.3%

Structure (SMILES): C=CCONC(=O)Cn1ccc(C(=O)N[C@@H](C)C(=O)N[C@@H](CC(C)C)C(=O)O)c1
- inhibition at 128 µM: 7.3%

Structure (SMILES): CC(C)[C@H](NC(=O)[C@H](C)NC(=O)c1ccn(CC(=O)NOCc2ccccc2)c1)C(=O)O
- inhibition at 128 µM: 10.2%

Structure (SMILES): C=CCONC(=O)Cn1ccc(C(=O)N[C@@H](C)C(=O)N[C@H](C(=O)O)C(C)C)c1
- inhibition at 128 µM: 9.3%

Structure (SMILES): NNC(=O)c1ccncc1 [ISONIAZID]
- inhibition at 128 µM: 100%

Structure (SMILES): CC(C)C[C@H](NC(=O)[C@H](C)NC(=O)c1ccn(CC(=O)NOCc2ccccc2)c1)C(=O)O
- inhibition at 128 µM: 25.2%

Structure (SMILES): CC(C)C[C@H](NC(=O)CNC(=O)c1cn(CC(=O)NOCc2ccccc2)c2ccccc12)C(=O)O
- inhibition at 128 µM: 33.7%

Structure (SMILES): C=CCONC(=O)Cn1cc(C(=O)N[C@@H](C)C(=O)N[C@H](C(=O)O)C(C)C)c2ccccc21
- inhibition at 128 µM: 18.5%
